Measurements reported in patent US7589123B2, “Chemical compounds” (Phytopharm PLC, priority 2006, dated 2009).
Where a name gives a salt, the structure may show the parent alone.

Experiments:
[1] = tested on: IL-1α-induced PGE2 release; test: IL-1α-induced PGE2 release in human diploid lung fibroblasts (WI-38) (Assay 5); type: cell-based; details: Homo sapiens, WI-38 cells, IL-1α 1 nM, overnight
Protocol: (§1) Human diploid lung fibroblasts (WI-38 cells) were incubated overnight in the presence of IL-1α (1 nM) and test compound (3 and 30 μM) in modified Eagle medium at pH 7.3 containing foetal bovine serum (10%) at 37° C. The supernatant was assayed by radioimmunoassay for released PGE2 and the inhibition of PGE2 by test compound calculated (Table 10). The viability of the cells was then assessed by washing with Roswell Park Memorial Institute medium and adding Alamar Blue reagent before being incubated at 37° C. for 4 h. Living cells take up Alamar Blue and emit fluorescence when excited. Fluorescence intensity was measured using a SpectroFluor Plus plate reader with excitation at 530 nm and emission at 590 nm (Table 10).

5-lipoxygenase = molecular target: T1, 5-lipoxygenase (Homo sapiens, UniProt P09917); test: 5-lipoxygenase activity (LTB4) in human peripheral blood mononuclear leukocytes (Assay 6); type: cell-based; details: human PBMLs, A23187 30 μM, read-out: Inhibition of 5-LO (%)
T1 construct: endogenous in cells; host or cells: human peripheral blood mononuclear leukocytes (PBMLs)
T1 sequence (P09917 1-674): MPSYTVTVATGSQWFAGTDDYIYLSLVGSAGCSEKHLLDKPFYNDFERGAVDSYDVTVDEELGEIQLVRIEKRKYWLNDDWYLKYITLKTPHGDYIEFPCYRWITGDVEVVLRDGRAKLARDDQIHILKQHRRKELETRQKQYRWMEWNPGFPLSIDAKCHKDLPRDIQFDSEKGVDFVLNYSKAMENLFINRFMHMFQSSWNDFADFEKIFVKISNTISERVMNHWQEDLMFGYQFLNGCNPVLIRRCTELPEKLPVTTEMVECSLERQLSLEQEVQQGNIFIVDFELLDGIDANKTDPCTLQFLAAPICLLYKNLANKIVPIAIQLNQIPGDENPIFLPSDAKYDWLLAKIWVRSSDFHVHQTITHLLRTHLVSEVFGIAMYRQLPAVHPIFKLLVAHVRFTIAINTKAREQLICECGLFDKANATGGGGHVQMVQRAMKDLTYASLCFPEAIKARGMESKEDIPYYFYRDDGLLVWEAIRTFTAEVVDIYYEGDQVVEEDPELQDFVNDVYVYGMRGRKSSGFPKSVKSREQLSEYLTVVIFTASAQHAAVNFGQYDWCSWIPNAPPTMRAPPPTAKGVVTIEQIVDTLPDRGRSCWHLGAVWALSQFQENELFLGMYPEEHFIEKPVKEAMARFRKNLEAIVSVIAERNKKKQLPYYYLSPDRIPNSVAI
Protocol: Human peripheral blood mononuclear leukocytes (PBMLs) were isolated using a Ficoll-Paque density gradient. Human peripheral blood mononuclear leukocytes (5×10^6 cells) were incubated with A23187 (30 μM), a divalent cation ionophore used to initiate the biosynthesis of […], and with vehicle (0.1% DMSO) or test compound (3 and 30 μM) in Hank's balanced salt solution (HBBS) buffer, pH 7.4 at 37° C. for 15 min. The PBML solution was neutralized with NaOH (1 N) and centrifuged at 1000 g for 10 min and the supernatant collected. The concentration of leukotriene B4 (LTB4) in the supernatant was measured using an enzyme immunoassay kit (Assay Design Inc.). A reduction in the concentration of LTB4 indicated an inhibition of the enzyme 5-lipoxygenase (Table 11).

[2] = tested on: histamine-induced contractions in guinea pig ileum; test: Inhibition of histamine-induced contractions in guinea pig ileum (Assay 3); details: Cavia porcellus, histamine 1.7 μM, read-out: Inhibition of histamine-induced contraction (%)
Protocol: (§2) Duncan Hartley derived male guinea pigs (325±25 g) were suppressed by CO2 overexposure, the abdominal cavity was exposed and ileal segments were removed. Small strips of ileum were suspended in organ baths containing Krebs solution (composition in g/l: NaCl 6.89, KCl 0.35, CaCl2 0.277, KH2PO4 0.163, MgSO4.7H2O 0.296, NaHCO3 2.1 glucose 1.8). The solution was kept at 32° C. and gassed with O2 (95%)-CO2 (5%) to maintain pH at 7.4. Mechanical activity was recorded by means of isotonic transducers. A resting tension of 1 g was applied to muscle strips before being equilibrated for 1 h, prior to test compound addition. Each preparation was washed twice at 15 min intervals during the equilibration.
(§3) Histamine (1.7 μM; approximately EC60-70) or 5-hydroxytryptamine (5-HT, 2.6 μM; approximately EC60-70) was applied for 5 min and the amplitude of the contraction recorded. The histamine or 5-HT was then washed out until the ileal tissue returned to baseline. Five min after returning to baseline test compound (3 and 30 μM) was applied and the amplitude of the contraction (if any) was recorded. In the continuous presence of test compound, histamine or 5-HT was re-applied and the inhibition of the response was recorded.

[3] = tested on: 5-HT-induced contractions in guinea pig ileum; test: Inhibition of 5-HT-induced contractions in guinea pig ileum (Assay 3); details: Cavia porcellus, 5-HT 2.6 μM, read-out: Inhibition of 5-HT-induced contraction (%)
Protocol: as §2, §3

TRPV1 receptor = TRPV1 receptor (Rattus norvegicus, UniProt O35433); test: TRPV1 modulation in DRG neurones: CGRP release in absence and presence of capsaicin (Assay 2); type: cell-based; parameters: The culture used for this experiment contained sensory neurones, Schwann cells and fibroblasts; endogenous in cells; host or cells: primary rat DRG sensory neurone culture (with Schwann cells and fibroblasts); details: 20 min; for inhibition at 3 µM: 3 μM with capsaicin 1 μM; for inhibition at 3 µM / inhibition at 30 µM: −ve: inhibition, +ve: potentiation of capsaicin response, read-out: Effect of test compounds on capsaicin (1 μM)-induced CGRP release (%); for inhibition at 30 µM: 30 μM with capsaicin 1 μM; for Emax at 3 µM: test compound alone 3 μM; for Emax at 3 µM / Emax at 30 µM: rat DRG sensory neurones, read-out: CGRP release (% of capsaicin (1 μM) response); for Emax at 30 µM: test compound alone 30 μM
TRPV1 receptor, sequence (O35433 whole entry): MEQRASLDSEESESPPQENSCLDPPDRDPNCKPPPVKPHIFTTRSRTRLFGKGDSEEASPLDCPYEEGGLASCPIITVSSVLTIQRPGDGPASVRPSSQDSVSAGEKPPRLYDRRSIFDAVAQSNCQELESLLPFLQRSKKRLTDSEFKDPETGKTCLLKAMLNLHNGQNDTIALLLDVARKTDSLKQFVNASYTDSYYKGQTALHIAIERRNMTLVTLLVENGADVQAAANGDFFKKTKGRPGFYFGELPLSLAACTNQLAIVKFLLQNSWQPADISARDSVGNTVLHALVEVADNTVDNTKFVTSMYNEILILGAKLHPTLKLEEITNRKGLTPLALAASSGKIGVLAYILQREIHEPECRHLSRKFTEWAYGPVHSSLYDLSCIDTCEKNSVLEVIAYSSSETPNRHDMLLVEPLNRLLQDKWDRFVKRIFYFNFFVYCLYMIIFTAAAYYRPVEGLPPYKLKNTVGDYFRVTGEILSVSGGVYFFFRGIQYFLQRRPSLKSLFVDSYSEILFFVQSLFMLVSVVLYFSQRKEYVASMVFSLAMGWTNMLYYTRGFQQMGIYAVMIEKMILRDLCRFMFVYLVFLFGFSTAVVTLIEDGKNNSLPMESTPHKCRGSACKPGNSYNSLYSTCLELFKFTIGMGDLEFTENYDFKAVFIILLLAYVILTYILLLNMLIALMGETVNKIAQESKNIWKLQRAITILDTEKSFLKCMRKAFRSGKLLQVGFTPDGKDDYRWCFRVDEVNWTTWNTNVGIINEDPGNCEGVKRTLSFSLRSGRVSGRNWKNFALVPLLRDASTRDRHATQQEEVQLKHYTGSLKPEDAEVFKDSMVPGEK

WI-38 cells = test: Viability of WI-38 cells, Alamar Blue (Assay 5); type: cell-based, human
Protocol: as §1

[4] = tested on: α-smooth muscle actin (α-SMA) mRNA; test: Anti-remodelling activity in human lung fibroblasts (HFL1): TGFβ-induced α-SMA mRNA (Assay 4); type: cell-based; details: Homo sapiens, HFL1 cells, TGFβ 10 ng/ml, 24 h, read-out: Inhibition of α-SMA mRNA synthesis (%)
Protocol: A human foetal lung fibroblast cell line (HFL1 cells; ATCC accession number CCl-153) was used in this assay. The cells were cultured in medium containing a low level of foetal bovine serum (FBS; 0.1%) for 24 h. After 24 h of culturing the medium was changed to: (a) Control medium (medium containing 10% FBS, 1% phosphate saline and 0.5 mM L-glutamine), (b) Control medium and transforming growth factor beta (TGFβ; 10 ng/ml), (c) Control medium and TGFβ and test compounds (3 and 30 μM). The medium was collected after 24 h and the total mRNA extracted in Tri-reagent. The level of mRNA coding for α-smooth muscle actin (α-SMA) was assessed by real-time reverse transcription-polymerase chain reaction (rtRT-PCR) using primer couples that allow the amplification of α-SMA mRNA. Liver glyceraldehydes 3-phosphate dehydrogenase (GADPH) was used as a reference marker in this experiment. The inhibition of the TGTβ-induced overexpression of α-SMA mRNA by the test compounds was quantified.

| Structure (SMILES) | inhibition at 3 µM [1] [%] | inhibition at 30 µM [1] [%] | inhibition at 3 µM (5-lipoxygenase) [%] | inhibition at 30 µM (5-lipoxygenase) [%] | inhibition at 3 µM [2] [%] | inhibition at 30 µM [2] [%] | inhibition at 3 µM [3] [%] | inhibition at 30 µM [3] [%] | inhibition at 3 µM (TRPV1 receptor) [%] | inhibition at 30 µM (TRPV1 receptor) [%] | Emax at 3 µM (TRPV1 receptor) [%] | Emax at 30 µM (TRPV1 receptor) [%] | Decrease in cell viability (%) (WI-38 cells; 3 μM) | Decrease in cell viability (%) (WI-38 cells; 30 μM) | inhibition at 3 µM [4] [%] | inhibition at 30 µM [4] [%] |
| --- | --- | --- | --- | --- | --- | --- | --- | --- | --- | --- | --- | --- | --- | --- | --- | --- |
| COc1cc(CCC(=O)CC(=O)c2ccccc2)ccc1OCCN [Compound 87, 5-(4-(2-aminoethoxy)-3-methoxyphenyl)-1-phenylpentane-1,3-dione hydrochloride] | -28 | -62 | -6 | 19 | 0 | 58 | 15 | 93 |  |  |  |  |  |  |  |  |
| COc1cc(CCC(=O)CC(=O)Cc2cccc3ccccc23)ccc1O [Compound 29, 6-(4-Hydroxy-3-methoxyphenyl)-1-naphthalen-1-yl-hexane-2,4-dione] | 86 | 99 | 47 | 98 | 17 | 89 | 5 |  | 46 | -41 | 65 | 164 | −1 | 12 | 33 | 86 |
| COc1cc(CCC(=O)CC(=O)c2ccccc2C)ccc1O [Compound 84, 5-(4-Hydroxy-3-methoxyphenyl)-1-o-tolylpentane-1,3-dione] | 101 | 102 | 77 | 98 | 19 | 66 | 22 | 100 | 32 | 26 | 54 | 74 | 3 | 12 | 6 | 65 |
| COc1cc(CCC(=O)CC(=O)c2ccccc2-c2ccccc2)ccc1O [Compound 19, 1-(Biphenyl-2-yl)-5-(4-hydroxy-3-methoxyphenyl)-pentane-1,3-dione] | 73 | 100 | 48 | 99 | 8 | 81 | 13 | 39 | -29 | -159 | 139 | 286 | −1 | 57 | 57 | 97 |
| COc1ccc(C(=O)C(C)C(=O)CCc2ccc(O)c(OC)c2)cc1 (centres unmarked) [Compound 17, 5-(4-Hydroxy-3-methoxyphenyl)-1-(4-methoxyphenyl)-2-methyl-pentane-1,3-dione] | 58 | 98 | 51 | 95 | 3 | 29 | 6 | 42 | -98 | -22 | 55 | 183 | −1 | 4 | -1 | 31 |
| COc1cc(CCC(=O)CC(=O)c2ccc(Cl)cc2)ccc1O [Compound 21, 1-(4-Chlorophenyl)-5-(4-hydroxy-3-methoxyphenyl)pentane-1,3-dione] | 88 | 99 | 68 | 98 | 9 | 68 | 9 | 49 | 6 | -56 | 50 | 150 | 3 | 11 | 6 | 54 |
| COc1cc(CCC(=O)C(C)(C)C(=O)C2(C)CC2)ccc1O [Compound 70, 5-(4-Hydroxy-3-methoxyphenyl)-2,2-dimethyl-1-(1-methylcyclopropyl)pentane-1,3-dione] | 42 | 86 | -1 | 63 | 4 | 29 | 2 | 46 |  |  |  |  | 0 | 5 |  |  |
| COc1cc(CCC(=O)CC(=O)c2ccc3ccccc3c2)c(Cl)cc1O [Compound 86, 5-(2-Chloro-4-hydroxy-5-methoxyphenyl)-1-(naphthalene-3-yl)pentane-1,3-dione] | 42 | 100 | 52 | 98 | 0 | 9 | 4 | 19 |  |  |  |  | 7 | 37 |  |  |
